Experimental data reported in a melting point compilation (Tetko et al.; mined from patent text by program, amines drawn as free bases though some values may be those of a salt).

SMILES | melting point [°C]
Cc1n[nH]c2c(C(=O)NC(C)C)c(NC(=O)c3cc(C(F)(F)F)nn3-c3ncccc3Cl)c(Cl)cc12 | 235 to 236
C#Cc1ccc(-c2ccc(Br)cc2)cc1 | 145 to 150
CSc1ccc(C)c2onc(OCCNC(=O)OC(C)(C)C)c12 | 85 to 86
Cc1sc(-c2ccccc2)nc1COc1ccc(CON=C(CCC(=O)O)c2ccccc2)cc1 | 99 to 100
COc1ccc(-c2c(C#N)nn(-c3c(Cl)cc(C(F)(F)F)cc3Cl)c2N)cc1 | 222
COc1ccc(-n2nc(O)c3c(=O)c4ccc(Cl)cc4[nH]c3c2=O)cc1 | 371 to 373
CN(C)C(=O)Oc1ccc(Cl)c2c1C(=O)c1ccccc1C2=O | 182 to 184
C#CCN1C(=O)COc2ccc(N)cc21 | 136 to 140
Cc1nc(S(=O)(=O)CC(N)=O)nc(C)c1Br | 175 to 177
CN(C)CCN(C)c1ccc2nnc(-c3cnc([N+](=O)[O-])n3C)n2n1 | 196 to 198
O=S(=O)(NCCCCl)c1ccc(Nc2ncnc3cc(Cl)ccc23)cc1 | 168 to 171
CCCCCSc1ncccc1C(=O)NCCCCn1cnc2c(N)nc3ccccc3c21 | 158 to 161
COC(=O)Nc1nc(-c2ccccc2)c(-c2nc3ccccc3c(=O)n2-c2ccccc2)s1 | > 275
COc1ccccc1Nc1cccc(C(=O)Nc2ccccc2)c1 | 153 to 154
Nc1n[nH]c(Nc2ccccc2)n1 | 158 to 159
N#CC(NC(=O)c1cccn2c(Cl)cnc12)c1ccco1 (stereo not given) | 142 to 143
COc1cc(NC=CS(=O)(=O)F)c(C(C)=O)cc1OC | 142 to 146
[O-][N+]1=C(c2ccco2)c2cc(Cl)ccc2N(CCCl)C(CCl)C1 (stereo not given) | 158 to 159
CCCN(CCC)C(=O)C(=NNc1ccccc1)C(C)=O | 79 to 80
Clc1cc(-c2csc(Cc3ccccc3)n2)ccn1 | 104 to 106
COc1cc(C(=O)C=Cc2ccccn2)cc(OC)c1OC | 94 to 95

SMILES | melting point [°C]
N#Cc1ccc(OCc2cnsc2)cc1OC(C(=O)O)c1ccccc1Cl (racemic) | 194 to 197
COC(=O)c1ccccc1S(=O)(=O)NC(=O)Nc1nnc(C)c(C)n1 | 150 to 151
CCC(C)(C)c1cc(C(=O)c2ccccc2)c(O)cc1O | 100 to 104
Cc1[nH]cnc1CSCCN=C(N)N | 141 to 142
Cc1[nH]c(=O)c(-c2csc(-c3ccnc(NCc4ccccn4)c3)n2)cc1C(=O)NCc1ccccn1 | > 260
N#CCc1ccc2ncc(C(=O)NCc3ccc(Cl)cc3)c(O)c2c1 | 244 to 246
Cc1nnc(-c2ccc3occ(-c4cccc(OCc5ccccc5)c4)c3c2)o1 | 96 to 97
Cc1oc(-c2ccccc2)nc1CCOS(C)(=O)=O | 88.2 to 89
O=C(O)CCCCC[C@H]1CC[C@@H](O)CC1 | 83 to 85
COc1cc(-c2nc3ccc(OCCN(C)C)cc3n2Cc2ccccc2C(F)(F)F)cc(OC)c1OC | 151
CCOC(=O)COc1ccc(SCc2cccc3nc(-c4ccc(C(F)(F)F)cc4)sc23)cc1C | 193 to 196
S=c1sc2ccccc2n1CNc1ccccc1 | 102 to 103
Cc1ncc2n1-c1ccc(Cl)cc1N(c1ccccc1)C(=O)C2 | 276 to 278
Cc1nc[nH]c1CSCCNC(=C[N+](=O)[O-])NN | 142
Cc1oc(-c2ccccc2)nc1COc1cccc(CON=C(CCC(=O)O)c2ccccc2)c1 | 108 to 109
CCCCCCCc1cn2cc(-c3ccc(O)cc3)nc2s1 | 122
CCOCCCN1C=Cc2cc(S(N)(=O)=O)sc2S1(=O)=O | 131 to 132
CN1CCN(Cc2ccc(C(=O)Nc3cccc(Nc4ncc(C#N)c(-c5cccs5)n4)c3)cc2)CC1 | 208 to 209
O=C(NC(Cc1c[nH]c2ccccc12)C(=O)CCc1cc(C(F)(F)F)cc(C(F)(F)F)c1)OCCc1ccccn1 (stereo not given) | 133 to 135
O=C(O)C(=O)NC1N=C2C(=Cc3ccccc32)S1 (stereo not given) | 229 to 231

Further lines, results first:

melting point [°C] | SMILES
139 to 140 | N#Cc1c(N2CCc3ccccc3CC2)nc[nH]c1=O
273 to 274 | CCNc1nc(C)c(-c2ccnc(Nc3ccc(N4CCOCC4)c(Cl)c3)n2)s1
74 to 76 | O=C(c1cccs1)C1(c2ccc(Cl)cc2)CCC1
65 to 67 | CC(=O)O[C@@H](c1cnnn1-c1ccccc1)[C@@H](CCN1CCC(N2CCCCC2=O)CC1)c1ccc(Cl)c(Cl)c1 (racemic)
105 to 108 | CC1(C)CCCC[C@H]1[C@H](O)c1ccc(F)cc1
106 to 109 | CC(C(=O)O)c1ccc(Nc2ccc(Cl)cc2)cc1 (stereo not given)
249 to 252 | Cc1c(C)c2c(c(C)c1O)C(=O)CC(COc1ccc(CC3SC(=O)NC3=O)cc1)O2 (stereo not given)
247 to 248 | O=C1C2=C(CCCC2)C(=O)N1c1ccc(Br)c(O)c1
257 to 258 | CC(C)c1ccc(-c2csc(-c3ccc(C(=O)O)cc3)n2)cc1
315 to 318 | Oc1ccc(-c2c[nH]c(-c3cccnc3)n2)cc1
156 to 170 | O=c1[nH]nc2ccc(NCCCN3CCC(OC(c4ccccc4)c4ccccc4)CC3)nn12
202 to 204 | Cc1cnnc2c(-c3ccc(F)cc3)c(-c3ccncc3)nn12
210 to 211 | Cc1ccc(C(=O)Nc2c(NC(=O)CN3CCN(CCO)CC3)ccc3c2C(=O)c2ccccc2C3=O)cc1
151 to 153 | COc1ccc(CC2NC(=O)NC2=O)cc1OC1CCCC1 (stereo not given)
88 to 90 | COc1ccc2c(c1)cc(C=O)n2C
114 to 117 | COc1ccc(C(C#Cc2ccccc2)CNC(C)=O)cc1OC1CCCC1 (racemic)
155 to 157 | CC(C)(n1cncn1)C(O)(Cn1cncn1)c1ccc(F)cc1F (stereo not given)
133 to 135 | OC1(c2ccc(F)cc2)CCC2(CC1)OCCO2
123 to 137 | CC(Cc1c[nH]c2ccccc12)(NC(=O)OC1C2CC3CC(C2)CC1C3)C(=O)c1ccccc1CCCC(=O)O (stereo not given)
183 to 185 | CCc1nnc2ccc(-c3cccc(C(F)(F)F)c3)nn12

melting point [°C] | SMILES
114 to 115 | CCc1cccc2c(C=O)cc(OC)c(O)c12
166 to 168 | CCOC(=O)c1nc2ccc(I)cc2[nH]1
92 to 93 | CN(C)CCOc1c2c(nc3ccccc13)C(C)(C)OC2
105 to 110 | CCN1C(=O)Cc2cccc(OC(=O)CCl)c21
207 to 208 | CSc1ccc(-c2coc3ccc(C(=O)NN)cc23)cc1Cl
144 to 145 | CC(C)n1nc(-c2sc(C(=O)NCCc3ccccn3)nc2-c2ccc(F)cc2)ccc1=O
90 to 91 | CC(CO)NC(=O)COc1ccc(CCNS(=O)(=O)c2ccccc2)cc1 (stereo not given)
86 to 88 | CC(=O)OC(C)c1cccc2cc(C(=O)CBr)oc12 (stereo not given)
103 to 109 | C[C@@H](n1cnc2cc(N)ccc2c1=O)[C@](O)(Cn1cncn1)c1ccc(F)cc1F
56 to 58 | CCOC(=O)C(Cc1ccc(OCCN2CCC(C)(C)c3cc(C(=O)c4ccccc4)ccc32)cc1)OCC(F)(F)F (stereo not given)
228 to 230 | O=C(O)CCN1CCN(c2cccc(C(F)(F)F)c2)CC1
116 | COc1ccc(C(O)CN2CCN(C(c3ccccc3)c3ccccc3)CC2)c(OC)c1 (stereo not given)
148 to 150 | N#Cc1c(N2CCCCC2)cc(-c2cccs2)c2c1Cc1ccccc1-2
119 to 121 | O=C(O)CCCCCc1nn(-c2ccc([N+](=O)[O-])cc2)c2c1CCCC2
210 to 211 | CC(C(=O)O)c1ccc2c(c1)C(=O)Cc1cc([N+](=O)[O-])ccc1S2 (stereo not given)
94 | CCOC(=O)C1CCCN1C(=O)c1cc2c(cc1[N+](=O)[O-])OCO2 (stereo not given)
58.6 | CC(NC(=O)OCc1ccccc1)C(=O)N1C(C(=O)O)CC2CCCCC21 (stereo not given)
182 to 184 | CC(=O)NC[C@H]1CN(c2cc(F)c(N3CCC(O)(COCC(F)(F)F)CC3)c(F)c2)C(=O)O1
195 | CCOC(=O)c1ccccc1N(CC(=O)N(C)c1ccccc1)C(=O)CNC(=O)Nc1cccc(C(C)O)c1 (stereo not given)
108 to 111 | CC1(CNC(=O)OC(C)(C)C)CN(c2cccc(Cl)n2)C1

melting point [°C] | SMILES
194 to 196 | N#CCNC(=O)C1(NC(=O)c2ccc(CBr)cc2)CCCCC1
125 to 140 | CC(C)Cn1c(C(O)c2ccccc2)nc2c(N)nc3ccccc3c21 (stereo not given)
116 to 118 | O=C(NC(CO)C(=O)c1ccc(Cl)cc1)C1CCN(C(=O)OCc2ccccc2)CC1 (stereo not given)
175 to 180 | Nc1nc(=O)n(C(=O)Oc2ccccc2)cc1F
282 to 285 | O=c1[nH]c2ccc(CCN3CCN(c4cccc5ccccc45)CC3)cc2o1
191 to 192 | COc1ccc(NC(=N)c2cccs2)cc1CO
164 to 166 | CC(C)c1cccc(C(C)C)c1NC(=O)CO
238 | COc1ccc(N2CCOCC2)c2sc(C(N)=S)nc12
138 | Cc1[nH]c2ccc(OS(=O)(=O)c3c(F)cccc3F)cc2c1C1CCN(C)CC1
188 to 189 | CN(c1cccc2cc(C3=NCC(CN4CCS(=O)(=O)CC4)S3)[nH]c12)S(=O)(=O)c1ccccn1 (stereo not given)
165 to 168 | COC(=O)C(=O)c1cn2c3c(cccc13)C(OC(C)=O)CC2 (stereo not given)
134 to 137 | CON=C(C(=O)OC)c1ccccc1COc1ccc2c(c1)OCC2=O
138 to 140 | CC(C)CC(NC(=O)N1CCc2cc(S(=O)(=O)N3CCN(c4cccc(Cl)c4)CC3)ccc21)C(=O)O (stereo not given)
77 to 79 | CC(=O)Oc1ccccc1CC1c2ccccc2Oc2ccccc21
255 to 256 | CCc1ccc2c(=O)c(C(N)=O)cn(C)c2c1
187 to 189 | Cc1cccc(NC(c2cccc(O)c2)c2ccc3cccnc3c2O)n1 (stereo not given)
130 to 144 | CC(=O)OCCOc1ncnc(NS(=O)(=O)c2ccc(C)cc2)c1C=O
100 to 101 | O=C1c2ccccc2C(=O)N1C[C@H](O)CCl
125 to 127 | O=c1cccc(C(F)F)[nH]1
